# Laboratory results from patent US9382204B2, “Inhibitors targeting the DNA-binding domain of human STAT3 for treatment of metastatic cancers” (Indiana University Research and Technology Corporation, priority 2013, dated 2016).
# Legend:
# A549 cells [1] = assay: Matrigel invasion assay, A549; format: cell-based, human
# Experimental: (§1) For wound-healing assay, 1×10^5 cells per well were plated in 6-well plates followed by introduction of a wound and monitoring the healing process of the wound over a 24-hour period. The healing of the wound was determined by measuring the remaining gap between two migrating edges at different times. […] At different times, invading cells were stained with crystal violate and counted.
# STAT3 [2] = assay: In-situ STAT3 binding to chromatin (subcellular fractionation, Western blot); format: cell-based, human; details: A549 and MDA-MB-231 cells, increasing concentration
# Experimental: Subcellular fractionation was performed as previously described. Briefly, cells were lysed in 10 mM HEPES, pH7.9, 10 mM KCl, 1.5 mM MgCl2, 0.34 M Sucrose, 10% glycerol, 1% Triton X-100, 1 mM DTT, 10 μM leupeptin, protease inhibitor cocktail and centrifuged at 4,200 g for 5 minutes to collect supernatant as cytosolic fraction. The pellet (nuclei) was resuspended in 3 mM EDTA, 0.2 mM EGTA, 1 mM DTT, 10 μM leupeptin, protease inhibitor cocktail and incubated on ice for 30 minutes followed by centrifugation at 5,000 g for 5 minutes. The supernatant was collected as soluble nuclear fraction. The pellet was resuspended in 50 mM Tris/HCl, pH7.4, 150 mM NaCl, 0.5% […], 5 mM EDTA, 50 mM NaF, 1 mM NaVO3, 1% SDS, 1 mM DTT, 10 μM leupeptin, protease inhibitor cocktail and sonicated to release proteins from chromatins.
# The in-situ DNA-binding activity of STAT3 was performed by analyzing chromatin-bound STAT3 also as previously described.
# STAT3 [3] = assay: IL-6 stimulated STAT3 activation in serum-starved A549 cells; details: 25 ng/ml IL-6
# A549 cells [4] = assay: Mouse xenograft model of A549 cells; format: in vivo, NOD/SCID mice
# Experimental: For efficacy study. 5×10^6 A549 cells were injected subcutaneously in the flanks of 12 NOD/SCID mice. When the tumor volume reached about 50.0 mm^3, the mice were randomized into two different groups (6/group) with one treated by formulation vehicle control (Pharmatek Laboratories, San Diego, Calif.) and the other by A18 at 200 mg/kg with oral dosing every two days for four weeks. One mouse in each group died during the study and was eliminated. Tumor volume and body weight were measured twice a week. On the 35th day after implant, mice were euthanized and the tumor tissues were harvested and weighed. Necropsy was also performed to determine the changes in heart, lungs, kidneys, liver and spleen. To evaluate the histological alternation, metastasis in the lung and the expression of STAT3 and its downstream proteins, paraffin-embedded tissue sections were stained with ematoxylin and eosin (H&E) and/or used for immunohistochemistry analysis.
# A549 cells [5] = assay: Wound-healing migration assay, A549; format: cell-based, human; details: 24 hours
# Experimental: as §1
# MDA-MB-231 cells = assay: Wound-healing migration assay, MDA-MB-231; format: cell-based, human; details: 24 hours
# Experimental: as §1
# IMR90 and MCF10A1 cells = assay: Cytotoxicity sulphorhodamine (SRB) assay, non-cancerous cells
# Experimental: (§2) FIG. 7. […] (A) Level of STAT3 expression and activation. […] Actin was used as a loading control. (B-C) Cytotoxicity assay. […] IC50 of inS3-54 for each cell line was derived using PrismPad program. (D) Apoptosis assay.
# (§3) Cytotoxicity of inS3-54 was determined using sulphorhodamine colorimetric assay as described previously (41). Photometric enzyme immunoassay using Cell Death Detection ELISA Plus kit (Roche Diagnostics, Indianapolis, Ind.) was performed for quantitative in-vitro determination of cytoplasmic histone-associated DNA fragments and apoptosis as we previously described.
# (§4) Survival, apoptosis, migration, and invasion assays were performed as previously described. Briefly, effect of STAT3 inhibitors on cell survival were analyzed using sulforhodamine B (SRB) assay. Apoptosis induced by STAT3 inhibitors cells were quantified using Cell Death Detection ELISA^PLUS Kit (Roche, Mannheim, Germany) by enzyme-linked immunosorbent assay (ELISA) according to manufacturer's instructions. Wound filling assay was performed by culturing 1×10^5 cells/well in 6-well plates, followed by generating a wound using a pipet tip and continuous culture with photographic recording at different times.
# A549 cells [6] = assay: Proliferation and apoptosis of 100% confluent A549 cells; format: cell-based, human
# Experimental: FIG. 9. Effect of inS3-54 on cell growth and apoptosis of confluent cells. […] (**p<0.01; *p<0.05).
# FIG. 21. Effects of inS3-54A18 on cell growth and apoptosis of confluent cells.
# Although we used 100% confluent cells and short time incubation in the above assays, inS3-54 inhibition of proliferation may still contribute to the above observed outcome. To eliminate this possibility, we analyzed cell proliferation and apoptosis under the same condition as wound-healing and Matrigel invasion assays with confluent cultures. […] Thus, we conclude that inS3-54 inhibition of migration and invasion is unlikely due to its effect on apoptosis and cell proliferation.
# [7] = system: A549, H1299, MDA-MB-231 and MDA-MB-468 cells; assay: Cytotoxicity sulphorhodamine (SRB) assay, cancer cells; format: cell-based, human
# MDA-MB-468 = assay: PARP cleavage in MDA-MB-468 cells; format: cell-based, human; details: 72-hour treatment, data not shown
# [8] = system: A549 and MDA-MB-231 cells; assay: Luminescence-based glutathione alkylation assay (GSH-Glo); format: cell-based, human; details: 20 μM inS3-54 48 hours, 15 mM iodoacetamide 30 minutes
# Source text: FIG. 5. Effect of inS3-54 glutathione level. […] (***p<0.001).
# To further eliminate the possibility that inS3-54 has alkylating activity, we performed luminescence-based glutathione alkylation assay.
# [9] = system: hematopoietic progenitor cells from STAT3−/− mice; assay: Hematopoietic progenitor cell colony formation assay, STAT3−/− mice; format: cell-based, mouse; details: 20 μM
# Experimental: Hematopoietic progenitor cell colony formation assay was performed as previously described. Briefly, 5×10^4 STAT3^+/+ and STAT3^−/− mouse (C57BL/6) bone marrow cells were stimulated in vitro with 1 U/ml recombinant human erythropoietin, 50 ng/ml recombinant mouse stem cell factor and 5% vol/vol pokeweed mitogen mouse spleen cell conditioned medium, and 0.1 mM hemin in the presence of either IMDM medium, IMDM medium plus inS3-54 analogues or DMSO vehicle control. Colonies were scored seven days after incubation at 37° C. with 5% CO2 and lowered (5%) 02.
# [10] = Cytotoxicity sulphorhodamine (SRB) assay, non-cancerous cells; details: human, IMR90 lung fibroblast and MCF10A1 mammary epithelial cells
# Experimental: as §2, §3, §4
# [11] = 200 mg/kg oral, every two days for four weeks
structure (smiles),measurement,setting,value
O=C1C(=Cc2ccc(Cl)cc2)C=C(c2ccccc2)N1c1ccc(O)cc1 [Compound A18],cell invasion inhibited,"A549 cells [1]; 5 μM, 6 hours",66%
same,"invasion reduced to, compared with control","A549 cells [1]; 10 μM, 6 hours",35%
same,STAT3 in the chromatin-bound fraction,STAT3 [2],decreases
same,IL-6-stimulated phosphorylation / activation of STAT3,STAT3 [3],did not inhibit
same,IL-6 stimulated expression of survivin,STAT3 [3],inhibited
same,final tumor weight compared to control-treated group,A549 cells [4]; [11],significantly less
same,mouse body weight,A549 cells [4]; [11],no significant effect
same,weight of other organs,A549 cells [4]; [11],no difference
same,xenograft tumor growth compared to vehicle control,A549 cells [4]; [11],significantly reduced
same,lung metastasis,A549 cells [4]; H&E staining and histology,None of the A18-treated mice has any signs of lung metastasis
same,expression of survivin and VEGF in xenograft tumors,A549 cells [4]; immunohistochemistry,reduced
same,wounds healed,A549 cells [5]; 5 μM,64%
same,wounds healed,A549 cells [5]; 10 μM,47%
same,wounds healed,MDA-MB-231 cells; 5 μM,76%
same,wounds healed,MDA-MB-231 cells; 10 μM,39%
same,cytotoxicity to noncancerous cells,IMR90 and MCF10A1 cells,little cytotoxicity
same,proliferation and apoptosis of confluent A549,"A549 cells [6]; 5 and 10 μM, 6 or 24 hours",no significant effect
CC(=O)Nc1ccc(N2C(=O)C(=Cc3ccc(Cl)cc3)C=C2c2ccccc2)cc1 [Compound A26],in-vitro therapeutic window,[7]; IC50 in non-cancerous cells divided by that in different cancer cells,small
same,cytotoxicity to lung fibroblast,IMR90 and MCF10A1 cells,high level cytotoxicity
same,IC50,"IMR90 and MCF10A1 cells; read-out: IC50, noncancerous lung fibroblast, lung fibroblast (IMR90)",4 µM
"O=C(O)c1ccc(N2C(=O)/C(=C/c3ccc([N+](=O)[O-])cc3)C=C2c2ccccc2)cc1 [inS3-54, 4-[(3E)-3-[(4-nitrophenyl)-methylidene]-2-oxo-5-phenylpyrrol-1-yl]benzoic acid]","invasion reduced to, compared with control","A549 cells [1]; 10 μM, 6 hours",67%
same,"invasion reduced to, compared with control","A549 cells [1]; 20 μM, 6 hours",49%
same,activity at 10 µM,"A549 cells [1]; Homo sapiens, A549, 10 μM, 24 hours, read-out: invasion, % of controls",~71%
same,activity at 20 µM,"A549 cells [1]; Homo sapiens, A549, 20 μM, 24 hours, read-out: invasion, % of controls",33%
same,cleavage of PARP,MDA-MB-468,induced cleavage of PARP
same,IC50,"[7]; Homo sapiens, 72 h, read-out: IC50 in cytotoxicity assay, cancer cells",3.2 to 5.4 µM
same,glutathione level,[8],did not significantly reduce
same,STAT3 in the chromatin-bound fraction,STAT3 [2],decreases
same,IL-6-stimulated phosphorylation / activation of STAT3,STAT3 [3],had no effect
same,IL-6 stimulated expression of survivin,STAT3 [3],inhibited
same,colony formation of hematopoietic progenitor cells from STAT3−/− mice,[9],further reduced
same,wounds healed,A549 cells [5]; 10 μM,54%
same,wounds healed,A549 cells [5]; 20 μM,27%
same,wounds healed,MDA-MB-231 cells; 10 μM,77%
same,wounds healed,MDA-MB-231 cells; 20 μM,29%
same,IC50 at 72 h,[10],10 to 12 µM
same,proliferation and apoptosis of confluent A549 cells,"A549 cells [6]; 20 μM, 24 hours",no significant effect
